Laboratory results from patent US11192859B2, “Quinoline compounds as modulators of RAGE activity and uses thereof” (NEW YORK UNIVERSITY, priority 2016, dated 2021).

Tests used:
[1] = target: binding of RAGE tail (ctRAGE) to DIAPH1 (Homo sapiens (Human), UniProt Q15109); test: Primary screen (high-throughput): blocking of GFP RAGE tail binding to DIAPH1; settings: 10 μM; Table 1
Description: […] Compounds that reduced binding of RAGE tail (ctRAGE) by at least 50% were then selected and subjected to 4-point dose response (10 uM, 1 uM, 0.1 uM and 0.01 uM).
• Step 1. Add 50 μl anti-DIAPH1 (1:160 dilution in 0.1M NaHCO3 pH 9.6)/well. Incubate overnight at 4° C. Day 2 • Step 2. Use the plate washer to aspirate anti-DIAPH11 and wash plates 4× with PBS 100 μl per well per wash. • Step 3. Add 180 μl 3% BSA in 1×PBS. Incubate for 1.5 hrs at room temperature Step 4. Use the plate washer to aspirate the blocking solution and wash 5× with PBS 300 μl per well. • Step 5. Add 50 μl of DIAPH1 containing lysate (85 μg) and incubate at RT for 3 hours. • Step 6. Aspirate the lysate and wash the plate 5×(100 μl) on the plate washer. • Step 7. Add 25 μl PBS to the wells. • Step 8. Add 0.5 μL compound per well. • Step 9. Add 24.5 μL GFP RAGE tail (125 nM) into each well for 2 hrs at room temperature. • Step 10. Aspirate and wash 5× with PBS (100 μL) on the plate washer. • Step 11. Add 100 μl PBS in each well. • Step 12. Detection: Read on fluorescence plate reader excitation […] and 485 nm emission
Compounds that blocked the binding of RAGE tail to DIAPH1 by 50% or more were subjected to 4 point dose response: 10 μM, 1 μM, 0.1 μM and 0.01 μM.

ctRAGE = ctRAGE (Homo sapiens (Human), UniProt Q15109); test: Fluorescence binding assay (native tryptophan fluorescence titration); design: key to Fluorescent Binding Assay, Kd (nM): ***: No binding; settings: 10 nM ctRAGE, pH 7.0, 5% DMSO; for Kd: read-out: Fluorescent Binding Assay, Kd
ctRAGE, sequence (Q15109 364-404): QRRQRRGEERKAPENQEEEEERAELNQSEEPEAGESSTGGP
Description: Native tryptophan fluorescence experiments were conducted using a Horiba Jobin Yvon Fluorolog spectrofluorometer. 1 mM of compound was dissolved in 10 mM phosphate buffer [pH 7.0] and 50% DMSO. ctRAGE was bacterially expressed and purified as described^1. 10 nM ctRAGE solution was individually titrated from 0.1 nM-100 μM with the compounds in 100 μL of 10 mM phosphate buffer [pH 7.0] and 5% DMSO. The excitation and emission wavelengths were 280 nm and 352 nm, respectively. Dissociation constants, Kd, were estimated from the changes in peak fluorescence intensities as a function of the free compound concentration by using Prism 5 software (GraphPad). Data were fit to the equation, (F−F0)/Fmax=[compound]/(Kd+[compound]) where F is the fluorescence intensity at a given compound concentration, F0 is the fluorescence intensity of the blank, and Fmax is the maximum fluorescence intensity.

[2] = test system: Murine vascular smooth muscle cells (SMCs); test: Smooth muscle cell migration assay (wounding assay), RAGE ligand CML-AGE; assay type: cell-based; design: key to SMC migration Assay, IC50 (nM): ****: No inhibition or bad fit or inhibition out of range; settings: CML-AGE 10 μg/ml, 7 h; for IC50: Mus musculus, read-out: SMC migration Assay, IC50
Description: FIG. 4 depicts effects of compounds on RAGE ligand-stimulated migration of murine aortic smooth muscle cells (SMCs). Migration of SMCs after incubation with the indicated RAGE inhibitor compounds or the parent molecule (“C12”) quinolone from the Chem-Bridge library was assessed. SMCs were grown to confluence and serum-starved overnight. The following morning, serum free media was removed and compounds were added (1 μM). Immediately following the addition of compounds, the monolayer was wounded using a p200 pipette tip and allowed to incubate for 1.5 h. Following this incubation, compounds were removed and fresh media containing RAGE ligand, CML-AGE (10 μg/ml), was added for 7 h. All images were measured at TO and T7 h and an area ingrowth of effective migrating cells was calculated. Each compound was tested in three independent wells and each well was photographed in 3 separate locations for a total of 9 images used in assessing area ingrowth. Error bars represent SEM. * indicates p<0.05 comparing CML-AGE vs. CML-AGE and compound treatment and # indicates p<0.001 comparing CML-AGE vs. serum free medium (SFM) vehicle. Note that SFM is the vehicle into which the RAGE ligand, CML-AGE, is added for testing the effect of RAGE ligand.
Murine vascular smooth muscle cells (SMCs) were cultured from the aortas of 10-week old male mice using a modification of the procedure of Travo and Barret^17. SMCs were cultured following an explant protocol in accordance with institutional guidelines. Wild-type murine aortic vascular SMCs were isolated and used between passages 8 to 12. Migration in response to the RAGE ligand CML-AGE (CML, 10 μg/ml) or a general effector, not a RAGE ligand, PDGF-BB, 10 ng/ml (R&D systems, Minneapolis, Minn., USA) was assessed with a wounding assay. Cells were grown to confluence in 12-well plates and starved overnight. The following morning, serum free media was removed and compounds were added. Immediately following the addition of compounds, the monolayer was wounded using a p200 pipette tip and the compounds were allowed to incubate for 1.5 h. Following this incubation, all compounds were removed and fresh media containing RAGE ligand or general effector, PDGF-BB, was added for 7 h. Cells were maintained at 37° C. and 5% CO2. Images were obtained at TO and T7. Each image was measured and an area ingrowth of effective migrating cells was calculated. The SMC migration assay data for representative compounds, Compounds 229 and 247, is depicted in FIGS. 5a and 5b, respectively.

binding of RAGE tail (ctRAGE) to DIAPH1, sequence (Q15109 364-404): as above

Row | SMILES | inhibition at 10 µM [1] | Kd (ctRAGE) | SMC migration Assay, IC50 (nM) [2] | other results
1 | COC(=O)c1cc(-c2ccc(OC)cc2)nc2ccccc12 [Compound 1] | 51% |  |  | 
2 | COC(=O)c1cc(-c2ccccc2)nc2cc(C)ccc12 [Compound 2] | 27% |  |  | 
3 | CCCNC(=O)c1cc(-c2ccc(NC(=O)CC)cc2)nc2ccccc12 [Compound 3] | 36% |  |  | 
4 | CC(=O)Nc1ccc(-c2cc(C(=O)NCCN(C)C)c3ccccc3n2)cc1 [Compound 4, 2-(4-Acetamidophenyl)-N-(2-(dimethylamino)ethyl)quinoline-4-carboxamide] | 45% |  |  | 
5 | CC(=O)Nc1ccc(-c2cc(C(=O)N3CCOCC3)c3ccccc3n2)cc1 [Compound 5, N-(4-(4-(Morpholine-4-carbonyl)quinolin-2-yl)phenyl)acetamide] | 34% |  |  | 
6 | COCCNC(=O)c1cc(-c2ccc(NC(C)=O)cc2)nc2ccccc12 [Compound 6] | 17% |  |  | 
7 | CC(=O)Nc1ccc(-c2cc(C(=O)N3CCCC3)c3ccccc3n2)cc1 [Compound 7] | 29% |  |  | 
8 | COC(=O)c1cc(-c2ccncc2)nc2ccccc12 [Compound 8] | 64% |  |  | 
9 | CC(=O)Nc1ccc(-c2cc(C(=O)O)c3ccccc3n2)cc1 [Compound 9] | 25% |  |  | 
10 | COC(=O)c1cc(-c2ccccc2C)nc2ccccc12 [Compound 10] | 28% |  |  | 
11 | CNC(=O)c1cc(-c2ccc(C)cc2)nc2ccccc12 [Compound 11] | 34% |  |  | 
12 | CCCCN(C)Cc1cc(-c2ccc(NC(C)=O)cc2)nc2ccccc12 [Compound 238, N-(4-(4-((butyl(methyl)amino)methyl)quinolin-2-yl)phenyl)acetamide] |  | 16 nM |  | IC50 [2]: 0.08 nM
13 | CC(=O)Nc1ccc(-c2cc(CNCCN(C)C)c3ccccc3n2)cc1 [Compound 239, N-(4-(4-(((2-(dimethylamino)ethyl)amino)methyl)quinolin-2-yl)phenyl)acetamide] |  | 13 nM | **** | 
14 | CC(=O)Nc1ccc(-c2cc(CN(C)CCN(C)C)c3ccccc3n2)cc1 [Compound 240, N-(4-(4-(((2-(dimethylamino)ethyl)(methyl)amino)methyl)quinolin-2-yl)phenyl)acetamide] |  |  | **** | Fluorescent Binding Assay, Kd (nM) (ctRAGE): ***
15 | CNCCNCc1cc(-c2ccc(NC(C)=O)cc2)nc2ccccc12 [Compound 241, N-(4-(4-(((2-(methylamino)ethyl)amino)methyl)quinolin-2-yl)phenyl)acetamide] |  | 11 nM | **** | 
16 | CNCCN(C)Cc1cc(-c2ccc(NC(C)=O)cc2)nc2ccccc12 [Compound 242, N-(4-(4-((methyl(2-(methylamino)ethyl)amino)methyl)quinolin-2-yl)phenyl)acetamide] |  | 8 nM |  | IC50 [2]: 44 nM
17 | CC(=O)Nc1ccc(-c2cc(CCCN3CCOCC3)c3ccccc3n2)cc1 [Compound 243, N-(4-(4-(3-morpholinopropyl)quinolin-2-yl)phenyl)acetamide] |  |  | **** | Fluorescent Binding Assay, Kd (nM) (ctRAGE): ***
18 | CC(=O)Nc1ccc(-c2cc(CN3CCN(C(=O)OC(C)(C)C)CC3)c3ccccc3n2)cc1 [Compound 244, tert-butyl 4-((2-(4-acetamidophenyl)quinolin-4-yl)methyl)piperazine-1-carboxylate] |  | 54 nM | **** | 
19 | CC(=O)Nc1ccc(-c2cc(CN3CCN(C)CC3)c3ccccc3n2)cc1 [Compound 245, N-(4-(4-((4-methylpiperazin-1-yl)methyl)quinolin-2-yl)phenyl)acetamide] |  |  | **** | Fluorescent Binding Assay, Kd (nM) (ctRAGE): ***
20 | CC(=O)Nc1ccc(-c2cc(CN3CCN(C(C)=O)CC3)c3ccccc3n2)cc1 [Compound 246, N-(4-(4-((4-acetylpiperazin-1-yl)methyl)quinolin-2-yl)phenyl)acetamide] |  |  | **** | Fluorescent Binding Assay, Kd (nM) (ctRAGE): ***
21 | CC(=O)Nc1ccc(-c2cc(CN3CCCCC3)c3ccccc3n2)cc1 [Compound 247, N-(4-(4-(piperidin-1-ylmethyl)quinolin-2-yl)phenyl)acetamide] |  | 2 nM |  | IC50 [2]: 1 nM
22 | Cc1nc2ccc(-c3cc(CN4CCOCC4)c4ccccc4n3)cc2[nH]1 [Compound 248, 4-((2-(2-methyl-1H-benzo[d]imidazol-6-yl)quinolin-4-yl)methyl)morpholine] |  |  | **** | Fluorescent Binding Assay, Kd (nM) (ctRAGE): ***
23 | Cc1nc2ccc(-c3cc(CN4CCOCC4)c4ccccc4n3)cc2o1 [Compound 249, 2-methyl-6-(4-(morpholinomethyl)quinolin-2-yl)benzo[d]oxazole] |  |  | **** | Fluorescent Binding Assay, Kd (nM) (ctRAGE): ***
24 | CC(=O)Nc1ccc(-c2cc(CN3CCOCC3)c3ccc(F)cc3n2)cc1F [Compound 250, N-(2-fluoro-4-(7-fluoro-4-(morpholinomethyl)quinolin-2-yl)phenyl)acetamide] |  | 81 nM |  | IC50 [2]: 40 nM
25 | CC(=O)Nc1ccc(-c2cc(CN3CCOCC3)c3ccc(F)cc3n2)cc1Cl [Compound 251, N-(2-chloro-4-(7-fluoro-4-(morpholinomethyl)quinolin-2-yl)phenyl)acetamide] |  | 168 nM | **** | 
26 | CC(=O)Nc1ccc(-c2cc(CN3CCOCC3)c3ccc(F)cc3n2)cc1C#N [Compound 252, N-(2-cyano-4-(7-fluoro-4-(morpholinomethyl)quinolin-2-yl)phenyl)acetamide] |  | 29 nM |  | IC50 [2]: 61 nM
27 | CC(=O)Nc1ccc(-c2cc(CN3CCOCC3)c3ccc(Cl)cc3n2)cc1F [Compound 253, N-(4-(7-chloro-4-(morpholinomethyl)quinolin-2-yl)-2-fluorophenyl)acetamide] |  | 1300 nM |  | IC50 [2]: 1200 nM
28 | CC(=O)Nc1ccc(-c2cc(CN3CCOCC3)c3ccc(Cl)cc3n2)cc1Cl [Compound 254, N-(2-chloro-4-(7-chloro-4-(morpholinomethyl)quinolin-2-yl)phenyl)acetamide] |  | 1340 nM |  | IC50 [2]: 2000 nM
29 | CC(=O)Nc1ccc(-c2cc(CN3CCOCC3)c3ccc(Cl)cc3n2)cc1C#N [Compound 255, N-(4-(7-chloro-4-(morpholinomethyl)quinolin-2-yl)-2-cyanophenyl)acetamide] |  | 137 nM | **** | 
30 | COc1ccc2c(CN3CCOCC3)cc(-c3ccc(NC(C)=O)c(F)c3)nc2c1 [Compound 256, N-(2-fluoro-4-(7-methoxy-4-(morpholinomethyl)quinolin-2-yl)phenyl)acetamide] |  | 5800 nM | **** | 
